Tests used:
[1] = system: A549 alveolar epithelial cells; experiment: Apoptosis assay by flow cytometry (annexin V / propidium iodide) in A549 cells; format: cell-based, human; settings: for apoptosis of alveolar epithelial cells: 10 μM peptide, 24 h
Experimental: (§1) The A549 and NHBE cells were cultured in DMEM supplemented with 10% fetal calf serum, 0.03% (w/v) L-glutamine, 100 IU/ml penicillin and 100 μg/ml streptomycin in a humidified, 5% CO2 atmosphere at 37° C. We used A549 cell lines in most experiments because they have higher potential growth and mimic the phenotype of alveolar type II cells more than primary NHBE cells (NPL82, NPL83); and in addition, these primary cells usually easily change phenotype or become senescent after a short period of culture.
(§2) A549 and NBHE cells (4×10^5 cells/well) were seeded into 12-well plates, cultured to sub-confluency, washed and then cultured in serum free medium containing 10% of each bacterial supernatant for 48 h. Non-inoculated hypersaline medium was used as control. The cells were analyzed for apoptosis by flow cytometry (FACScan, BD Biosciences, Oxford, UK) after staining with fluorescein-labelled annexin V and propidium iodide (FITC Annexin V Apoptosis Detection Kit with PI, Biolegend, San Diego, CA). Flow cytometry gating strategy used in the experiments is described in FIGS. 34A-34C. Under physiological conditions, phosphatidylcholine is exposed externally while phosphatidylserine (PS) is located on the inner surface of the lipid bilayer of cellular membranes. See NPL84. During apoptosis, PS is translocated from the cytoplasmic face of the plasma membrane to the cell surface. Id.

[2] = system: human Jurkat T cells; experiment: Apoptosis flow cytometry in T cells; format: cell-based; settings: 10 μg/ml, 48 h
Experimental: FIGS. 21E and 21F show a flow cytometry analysis of human Jurkat T cells after culturing for 48 h in DMEM medium containing 10 μg/ml corisin. Each treatment group had n=4. Bars indicate the means ±S.D. Statistical analysis was performed by ANOVA with Tukey's test.
as §2

[3] = system: A549 alveolar epithelial cells; experiment: Transmission electron microscopy of apoptotic cells; format: cell-based, human; settings: 5 μM, 16 h
Experimental: A549 cells (10×10^4 cells/ml) were plated on a collagen-coated 8-well chamber slides (BD Bioscience, San Jose, CA) and cultured until semi-confluent. Cells were serum-starved for 6 h and stimulated with the pro-apoptotic peptide (5 μM) for 16 h. Cells were fixed with 2% fresh formaldehyde and 2.5% glutaraldehyde in 0.1 M sodium cacodylate buffer (pH 7.4) for 2 h at room temperature. After washing with 0.1 M cacodylate buffer (pH 7.4), they were postfixed with 1% OsO4 in the same buffer for 2 h at 4° C. The samples were rinsed with distilled water, stained with 1% aqueous uranyl acetate for 2 h or overnight at room temperature, dehydrated with ethanol and propylene oxide, and embedded in epon (Epon 812 resin, Nakalai). After removal of the cells from the glass, ultra-thin sections (94 nm) were cut, stained with uranyl acetate and Reynolds's lead citrate, and viewed with a transmission electron microscope (JEM-1010, JEOL, Tokyo, Japan).

[4] = system: HFL1 lung fibroblasts; experiment: Apoptosis flow cytometry in lung fibroblasts; format: cell-based; settings: 10 μg/ml, 48 h
Experimental: FIGS. 21A and 21B show a flow cytometry analysis of HFL1 lung fibroblasts after culturing for 48 h in DMEM medium containing 10 μg/ml corisin. Each had with n=4.
as §2

[5] = system: human umbilical vein endothelial cells; experiment: Apoptosis flow cytometry in vascular endothelial cells; format: cell-based; settings: 10 μg/ml, 48 h
Experimental: FIGS. 21C and 21D show a flow cytometry analysis of human umbilical vein endothelial cells after culturing for 48 h in DMEM medium containing 10 μg/ml corisin. Each group had n=4.
as §2

[6] = system: normal human bronchial epithelial (NHBE) cells; experiment: Apoptosis assay by flow cytometry in normal human bronchial epithelial cells; format: cell-based; settings: 10 μM, 48 h
Experimental: More specifically, FIGS. 19A-19B show a flow cytometry analysis of normal human bronchial epithelial (NHBE) cells after culturing for 48 h in DMEM medium containing 10 μM of corisin or of its scrambled sequence. Each treatment group had n=4. Bars indicate the means ±S.D. Statistical analysis by ANOVA with Tukey's test. *p<0.001.
as §1
A549 and NBHE cells (4×10^5 cells/well) were seeded into 12-well plates, cultured to sub-confluency, washed and then cultured in serum free medium containing 10% of each bacterial supernatant for 48 h. Non-inoculated hypersaline medium was used as control. The cells were analyzed for apoptosis by flow cytometry (FACScan, BD Biosciences, Oxford, UK) after staining with fluorescein-labelled annexin V and propidium iodide (FITC Annexin V Apoptosis Detection Kit with PI, Biolegend, San Diego, CA). […]

[7] = system: normal human bronchial epithelial (NHBE) cells; experiment: Western blotting of cleaved caspase-3 and Akt in NHBE cell lysates; format: cell-based
Experimental: Each treatment group had n=4. A representative blot of each treatment group is shown.
FIGS. 19D and 19E show the intensity of the Western blot membrane bands as quantified by densitometry using Image? software. Each treatment group had n=4. Bars indicate the means ±S.D. Statistical analysis was performed by one-tailed Mann-Whitney U test. *p<0.05.
The cells for Western blot analysis were washed twice with ice-cold phosphate-buffered saline and then lysed in radioimmunoprecipitation assay (RIPA) buffer (10 mM Tris-Cl (pH 8.0), 1 mM EDTA, 1% Triton X-100, 0.1% sodium deoxycholate, 0.1% SDS, 140 mM NaCl, 1 mM phenylmethylsulfonyl fluoride) supplemented with protease/phosphatase inhibitors (1 mM orthovandate, 50 mM β-glycerophosphate, 10 mM sodium pyrophosphate, 5 μg/mL leupeptin, 2 μg/mL aprotinin, 5 mM sodium fluoride). The suspensions were centrifuged (17,000 x g, 10 min at 4° C.), and the protein content was determined using Pierce BCA protein assay kit (Thermo Fisher Scientific Incorporation, Waltham, MA). Equal amounts of cellular lysate protein were mixed with Laemmli sample buffer and separated by SDS-PAGE. […] The intensity of the bands was quantified by densitometry using the public domain NIH imageJ program (Wayne Rasband, NIH, Research Service Branch).

[8] = system: TGFβ1 TG mice; experiment: Intratracheal instillation of corisin in TGFβ1 TG mice with lung fibrosis; format: in vivo, mouse; settings: intratracheal once daily for two days, euthanasia day 3, vs control mice
From the text: To investigate whether corisin can exacerbate the lung fibrotic disease in vivo, we separated TGFβ1 TG mice into three groups with matched level of lung fibrosis (see FIGS. 25A and 25B) and treated them with saline, scrambled peptide or corisin by the intratracheal route once daily for two days before euthanasia on day 3 (see FIG. 6A).
Under profound anesthesia, we collected bronchoalveolar lavage fluid for biochemical analysis and cell counting. Briefly, bronchoalveolar lavage fluid was performed by cannulating the trachea with a 20-gauge needle and infusing saline solutions into the lungs in accordance with NPL68. The samples were centrifuged and the supernatants were stored at −80° C. until analysis. The cell pellets were re-suspended in physiological saline solution and the number of cells was counted. A nucleocounter from ChemoMetec (Allerød, Denmark) was used for cell counting and the cells were stained with May-Grünwald-Giemsa (Merck, Darmstadt, Germany) to count differential cells. Mice were sacrificed by anesthesia overdose, and the lungs were resected to fix in formalin, embedded in paraffin and prepared for hematoxylin and eosin staining. The severity of lung fibrosis was quantitated based on the Ashcroft criteria. See NPL67. The level of TGFβ1 was measured using a commercial enzyme immunoassay kit from BD Biosciences Pharmingen (San Diego, CA).
Three groups of TGFβ1 TG mice (each n=5 or n=4) with matched grade (level) of lung fibrosis as assessed by CT score underwent intratracheal instillation of corisin or scrambled peptide or 0.9% NaCl solution on days 1 and 2 and sacrificed on day 3 to evaluate changes in lung inflammation and fibrosis. WT mice (n=3) without lung fibrosis treated with 0.9% NaCl solution were used as controls.
Staining of terminal deoxynucleotidyl transferase dUTP Nick-End Labeling (TUNEL) was performed at the Biopathology Institute Corporation (Kunisaki, Oita, Japan) by using Alexa Fluor 594 goat anti-rabbit IgG and slow-fade gold-antifade reagent with 4′,6-diamidino-2-phenylindole (DAPI) or by using ApopTag terminal deoxynucleotidyl transferase (Merck Millipore, Burlington, MA), anti-digoxigenin-peroxidase and 3,3′-diaminobenzidine. Quantification of apoptotic areas was performed using the WinROOF software (Mitani Corporation, Tokyo, Japan) and the values were averaged for each individual mouse.

IIARESNGQLHARNASGAA (listed as Staphylococcus epidermidis) [reference compound]
apoptosis of alveolar epithelial cells [1]: no pro-apoptotic effect

IVMPESSGNPNAVNPAGYR (listed as Staphylococcus cohnii) [corisin, peptide of 19 amino acid residues, segment of transglycosylase 351 IsaA of Staphylococcus nepalensis strain CNDG]
apoptotic activity on lymphocyte cell line [2]: no apoptotic activity | apoptotic property by transmission electron micrographs [3]: confirmed the apoptotic property | apoptotic activity on lung fibroblast [4]: no apoptotic activity | apoptotic activity on vascular endothelial cell [5]: no apoptotic activity | apoptosis of normal human bronchial epithelial cells [6]: significantly enhanced apoptosis | Akt activation [7]: decreased | cleavage of caspase-3 [7]: increased | apoptosis of epithelial cells in the lungs [8]: enhanced | collagen deposition in the lungs [8]: increased | concentration of inflammatory cytokines and chemokines in the lungs [8]: increased | infiltration of macrophages, lymphocytes and neutrophils in the lungs [8]: significantly increased | pro-apoptotic activity after heating ([1]; 5 μM, incubated at 85° C. for 15 min before adding to A549 cells for 48 h): heat-resistant | apoptosis of alveolar epithelial cells [1]: induces apoptosis of alveolar epithelial cells | apoptotic activity compared with equal protein concentrations of supernatant ([1]; corisin 5 or 10 μg/ml vs supernatant protein 10 or 100 μg/ml, 48 h): significantly more potent | pro-apoptotic effect on A549 cells ([1]; increasing concentrations of synthetic corisin, 48 h, DMEM): recapitulated the pro-apoptotic effect of the staphylococcal isolate supernatant in a dose dependent manner

IVMPESGGNPNAVNPAGYR (listed as Staphylococcus warneri) [1 amino acid change from Staphylococcus nepalensis derivative]
apoptosis of A549 alveolar epithelial cells ([1]; 5 μM peptide, 48 h): induces apoptosis

NRVYNGPAASPVSEGMPIN (listed as Staphylococcus epidermidis) [scrambled peptide, reference compound]
apoptosis of normal human bronchial epithelial cells [6]: did not | apoptosis of alveolar epithelial cells [1]: not
